{"source": "ChEMBL document CHEMBL1697731", "about": "“Cheminformatics analysis of assertions mined from literature that describe drug-induced liver injury in different species” (Chem Res Toxicol, 2010)", "key": {"Hepatotoxicity [1]": {"system": "Hepatotoxicity", "assay": "Literature-mined compound from Fourches et al multi-species drug-induced liver injury (DILI) dataset, effect in humans", "conditions": "human"}, "Hepatotoxicity [2]": {"system": "Hepatotoxicity", "assay": "Literature-mined compound from Fourches et al multi-species drug-induced liver injury (DILI) dataset, effect in rodents", "conditions": "rodentia"}, "Hepatotoxicity [3]": {"system": "Hepatotoxicity", "assay": "Literature-mined compound from Fourches et al multi-species drug-induced liver injury (DILI) dataset, effect in non-rodents"}}}
{"smiles": "COc1ccccc1Oc1c(NS(=O)(=O)c2ccc(C(C)C)cn2)nc(-c2ccnc(-c3nnn[nH]3)c2)nc1OCCO", "note": "[TEZOSENTAN]", "values": [{"measurement": "Hepatotoxicity", "setting": "Hepatotoxicity [1]", "value": "no drug-induced liver injury reported"}, {"measurement": "Hepatotoxicity", "setting": "Hepatotoxicity [2]", "value": "drug-induced liver injury reported"}, {"measurement": "Hepatotoxicity", "setting": "Hepatotoxicity [3]", "value": "no drug-induced liver injury reported"}]}
{"smiles": "O=C1CCC(N2C(=O)c3ccccc3C2=O)C(=O)N1", "note": "(stereo unspecified) [THALIDOMIDE]", "values": [{"measurement": "Hepatotoxicity", "setting": "Hepatotoxicity [1]", "value": "drug-induced liver injury reported"}, {"measurement": "Hepatotoxicity", "setting": "Hepatotoxicity [2]", "value": "drug-induced liver injury reported"}, {"measurement": "Hepatotoxicity", "setting": "Hepatotoxicity [3]", "value": "no drug-induced liver injury reported"}]}
{"smiles": "Cn1c(=O)c2[nH]cnc2n(C)c1=O.O", "note": "[THEOPHYLLINE]", "values": [{"measurement": "Hepatotoxicity", "setting": "Hepatotoxicity [1]", "value": "drug-induced liver injury reported"}, {"measurement": "Hepatotoxicity", "setting": "Hepatotoxicity [2]", "value": "drug-induced liver injury reported"}, {"measurement": "Hepatotoxicity", "setting": "Hepatotoxicity [3]", "value": "drug-induced liver injury reported"}]}
{"smiles": "c1ccc2[nH]c(-c3cscn3)nc2c1", "note": "[THIABENDAZOLE]", "values": [{"measurement": "Hepatotoxicity", "setting": "Hepatotoxicity [1]", "value": "drug-induced liver injury reported"}, {"measurement": "Hepatotoxicity", "setting": "Hepatotoxicity [2]", "value": "drug-induced liver injury reported"}, {"measurement": "Hepatotoxicity", "setting": "Hepatotoxicity [3]", "value": "drug-induced liver injury reported"}]}
{"smiles": "Cc1ncc(C[n+]2csc(CCO)c2C)c(N)n1", "note": "[THIAMINE ION]", "values": [{"measurement": "Hepatotoxicity", "setting": "Hepatotoxicity [1]; Liver", "value": "drug-induced liver injury reported"}, {"measurement": "Hepatotoxicity", "setting": "Hepatotoxicity [2]; Liver", "value": "drug-induced liver injury reported"}, {"measurement": "Hepatotoxicity", "setting": "Hepatotoxicity [3]; Liver", "value": "no drug-induced liver injury reported"}]}
{"smiles": "CS(=O)(=O)c1ccc([C@@H](O)[C@@H](CO)NC(=O)C(Cl)Cl)cc1", "note": "[THIAMPHENICOL]", "values": [{"measurement": "Hepatotoxicity", "setting": "Hepatotoxicity [1]", "value": "drug-induced liver injury reported"}, {"measurement": "Hepatotoxicity", "setting": "Hepatotoxicity [2]", "value": "drug-induced liver injury reported"}, {"measurement": "Hepatotoxicity", "setting": "Hepatotoxicity [3]", "value": "no drug-induced liver injury reported"}]}
{"smiles": "CSC[C@H]1C(=O)SC[C@@H](NC(=O)c2nc3ccccc3cc2O)C(=O)NCC(=O)N(C)[C@H]2SSC[C@@H](C(=O)N1C)N(C)C(=O)CNC(=O)[C@H](NC(=O)c1nc3ccccc3cc1O)CSC(=O)[C@H](CSC)N(C)C2=O", "note": "[THIOCORALINE]", "values": [{"measurement": "Hepatotoxicity", "setting": "Hepatotoxicity [1]", "value": "drug-induced liver injury reported"}, {"measurement": "Hepatotoxicity", "setting": "Hepatotoxicity [2]", "value": "no drug-induced liver injury reported"}, {"measurement": "Hepatotoxicity", "setting": "Hepatotoxicity [3]", "value": "no drug-induced liver injury reported"}]}
{"smiles": "CSc1ccc2c(c1)N(CCC1CCCCN1C)c1ccccc1S2", "note": "(stereo unspecified) [THIORIDAZINE]", "values": [{"measurement": "Hepatotoxicity", "setting": "Hepatotoxicity [1]", "value": "drug-induced liver injury reported"}, {"measurement": "Hepatotoxicity", "setting": "Hepatotoxicity [2]", "value": "drug-induced liver injury reported"}, {"measurement": "Hepatotoxicity", "setting": "Hepatotoxicity [3]", "value": "no drug-induced liver injury reported"}]}
{"smiles": "OCCSCCCCCCCCCCSCCO", "note": "[TIADENOL]", "values": [{"measurement": "Hepatotoxicity", "setting": "Hepatotoxicity [1]", "value": "no drug-induced liver injury reported"}, {"measurement": "Hepatotoxicity", "setting": "Hepatotoxicity [2]", "value": "drug-induced liver injury reported"}, {"measurement": "Hepatotoxicity", "setting": "Hepatotoxicity [3]", "value": "no drug-induced liver injury reported"}]}
{"smiles": "CC(C(=O)O)c1ccc(C(=O)c2ccccc2)s1", "note": "(stereo unspecified) [TIAPROFENIC ACID]", "values": [{"measurement": "Hepatotoxicity", "setting": "Hepatotoxicity [1]", "value": "no drug-induced liver injury reported"}, {"measurement": "Hepatotoxicity", "setting": "Hepatotoxicity [2]", "value": "drug-induced liver injury reported"}, {"measurement": "Hepatotoxicity", "setting": "Hepatotoxicity [3]", "value": "no drug-induced liver injury reported"}]}
{"smiles": "NC(=O)c1csc([C@@H]2O[C@H](CO)[C@@H](O)[C@H]2O)n1", "note": "[TIAZOFURIN]", "values": [{"measurement": "Hepatotoxicity", "setting": "Hepatotoxicity [1]", "value": "no drug-induced liver injury reported"}, {"measurement": "Hepatotoxicity", "setting": "Hepatotoxicity [2]", "value": "drug-induced liver injury reported"}, {"measurement": "Hepatotoxicity", "setting": "Hepatotoxicity [3]", "value": "no drug-induced liver injury reported"}]}
{"smiles": "Clc1ccccc1CN1CCc2sccc2C1", "note": "[TICLOPIDINE]", "values": [{"measurement": "Hepatotoxicity", "setting": "Hepatotoxicity [1]; Liver", "value": "drug-induced liver injury reported"}, {"measurement": "Hepatotoxicity", "setting": "Hepatotoxicity [2]; Liver", "value": "drug-induced liver injury reported"}, {"measurement": "Hepatotoxicity", "setting": "Hepatotoxicity [3]; Liver", "value": "no drug-induced liver injury reported"}]}
{"smiles": "CC(C)(C)NC[C@H](O)COc1nsnc1N1CCOCC1", "note": "[TIMOLOL]", "values": [{"measurement": "Hepatotoxicity", "setting": "Hepatotoxicity [1]", "value": "drug-induced liver injury reported"}, {"measurement": "Hepatotoxicity", "setting": "Hepatotoxicity [2]", "value": "no drug-induced liver injury reported"}, {"measurement": "Hepatotoxicity", "setting": "Hepatotoxicity [3]", "value": "no drug-induced liver injury reported"}]}
{"smiles": "CC(S)C(=O)NCC(=O)O", "note": "(stereo unspecified) [TIOPRONIN]", "values": [{"measurement": "Hepatotoxicity", "setting": "Hepatotoxicity [1]", "value": "drug-induced liver injury reported"}, {"measurement": "Hepatotoxicity", "setting": "Hepatotoxicity [2]", "value": "drug-induced liver injury reported"}, {"measurement": "Hepatotoxicity", "setting": "Hepatotoxicity [3]", "value": "no drug-induced liver injury reported"}]}
{"smiles": "Nc1n[n+]([O-])c2ccccc2[n+]1[O-]", "note": "[TIRAPAZAMINE]", "values": [{"measurement": "Hepatotoxicity", "setting": "Hepatotoxicity [1]", "value": "no drug-induced liver injury reported"}, {"measurement": "Hepatotoxicity", "setting": "Hepatotoxicity [2]", "value": "drug-induced liver injury reported"}, {"measurement": "Hepatotoxicity", "setting": "Hepatotoxicity [3]", "value": "no drug-induced liver injury reported"}]}
{"smiles": "O=C(O)Cc1cc(I)c(Oc2ccc(O)c(I)c2)c(I)c1", "note": "[TIRATRICOL]", "values": [{"measurement": "Hepatotoxicity", "setting": "Hepatotoxicity [1]", "value": "no drug-induced liver injury reported"}, {"measurement": "Hepatotoxicity", "setting": "Hepatotoxicity [2]", "value": "drug-induced liver injury reported"}, {"measurement": "Hepatotoxicity", "setting": "Hepatotoxicity [3]", "value": "no drug-induced liver injury reported"}]}
{"smiles": "Clc1ccc2nsnc2c1NC1=NCCN1", "note": "[TIZANIDINE]", "values": [{"measurement": "Hepatotoxicity", "setting": "Hepatotoxicity [1]; Liver", "value": "drug-induced liver injury reported"}, {"measurement": "Hepatotoxicity", "setting": "Hepatotoxicity [2]; Liver", "value": "no drug-induced liver injury reported"}, {"measurement": "Hepatotoxicity", "setting": "Hepatotoxicity [3]; Liver", "value": "no drug-induced liver injury reported"}]}
{"smiles": "NC[C@H]1O[C@H](O[C@H]2[C@H](O)[C@@H](O[C@H]3O[C@H](CO)[C@@H](O)[C@H](N)[C@H]3O)[C@H](N)C[C@@H]2N)[C@H](N)C[C@@H]1O", "note": "[TOBRAMYCIN]", "values": [{"measurement": "Hepatotoxicity", "setting": "Hepatotoxicity [1]", "value": "no drug-induced liver injury reported"}, {"measurement": "Hepatotoxicity", "setting": "Hepatotoxicity [2]", "value": "drug-induced liver injury reported"}, {"measurement": "Hepatotoxicity", "setting": "Hepatotoxicity [3]", "value": "no drug-induced liver injury reported"}]}
{"smiles": "CC(=O)Oc1c(C)c(C)c2c(c1C)CCC(C)(CCC[C@H](C)CCC[C@H](C)CCCC(C)C)O2", "note": "(stereo partly specified) [TOCOPHEROL ACETATE]", "values": [{"measurement": "Hepatotoxicity", "setting": "Hepatotoxicity [1]", "value": "no drug-induced liver injury reported"}, {"measurement": "Hepatotoxicity", "setting": "Hepatotoxicity [2]", "value": "drug-induced liver injury reported"}, {"measurement": "Hepatotoxicity", "setting": "Hepatotoxicity [3]", "value": "no drug-induced liver injury reported"}]}
{"smiles": "Cc1ccc(S(=O)(=O)NC(=O)NN2CCCCCC2)cc1", "note": "[TOLAZAMIDE]", "values": [{"measurement": "Hepatotoxicity", "setting": "Hepatotoxicity [1]", "value": "drug-induced liver injury reported"}, {"measurement": "Hepatotoxicity", "setting": "Hepatotoxicity [2]", "value": "drug-induced liver injury reported"}, {"measurement": "Hepatotoxicity", "setting": "Hepatotoxicity [3]", "value": "no drug-induced liver injury reported"}]}
{"smiles": "Cc1ccc(C(=O)c2cc(O)c(O)c([N+](=O)[O-])c2)cc1", "note": "[TOLCAPONE]", "values": [{"measurement": "Hepatotoxicity", "setting": "Hepatotoxicity [1]; Liver", "value": "drug-induced liver injury reported"}, {"measurement": "Hepatotoxicity", "setting": "Hepatotoxicity [2]; Liver", "value": "drug-induced liver injury reported"}, {"measurement": "Hepatotoxicity", "setting": "Hepatotoxicity [3]; Liver", "value": "no drug-induced liver injury reported"}]}
{"smiles": "Cc1ccc(C(=O)C(C)CN2CCCCC2)cc1", "note": "(stereo unspecified) [TOLPERISONE]", "values": [{"measurement": "Hepatotoxicity", "setting": "Hepatotoxicity [1]", "value": "drug-induced liver injury reported"}, {"measurement": "Hepatotoxicity", "setting": "Hepatotoxicity [2]", "value": "no drug-induced liver injury reported"}, {"measurement": "Hepatotoxicity", "setting": "Hepatotoxicity [3]", "value": "no drug-induced liver injury reported"}]}
{"smiles": "Cc1ccc(O)c([C@H](CCN(C(C)C)C(C)C)c2ccccc2)c1", "note": "[TOLTERODINE]", "values": [{"measurement": "Hepatotoxicity", "setting": "Hepatotoxicity [1]", "value": "drug-induced liver injury reported"}, {"measurement": "Hepatotoxicity", "setting": "Hepatotoxicity [2]", "value": "no drug-induced liver injury reported"}, {"measurement": "Hepatotoxicity", "setting": "Hepatotoxicity [3]", "value": "no drug-induced liver injury reported"}]}
{"smiles": "CC1(C)O[C@@H]2[C@@H](CO[C@@]3(COS(N)(=O)=O)OC(C)(C)O[C@@H]23)O1", "note": "[TOPIRAMATE]", "values": [{"measurement": "Hepatotoxicity", "setting": "Hepatotoxicity [1]", "value": "drug-induced liver injury reported"}, {"measurement": "Hepatotoxicity", "setting": "Hepatotoxicity [2]", "value": "no drug-induced liver injury reported"}, {"measurement": "Hepatotoxicity", "setting": "Hepatotoxicity [3]", "value": "no drug-induced liver injury reported"}]}
{"smiles": "CN(C)CCOc1ccc(/C(=C(/CCCl)c2ccccc2)c2ccccc2)cc1", "note": "[TOREMIFENE]", "values": [{"measurement": "Hepatotoxicity", "setting": "Hepatotoxicity [1]", "value": "drug-induced liver injury reported"}, {"measurement": "Hepatotoxicity", "setting": "Hepatotoxicity [2]", "value": "drug-induced liver injury reported"}, {"measurement": "Hepatotoxicity", "setting": "Hepatotoxicity [3]", "value": "no drug-induced liver injury reported"}]}
{"smiles": "COc1cc2c(cc1O)CCN[C@]21CS[C@@H]2c3c(OC(C)=O)c(C)c4c(c3[C@H](COC1=O)N1[C@@H]2[C@H]2c3c(cc(C)c(OC)c3O)C[C@@H]([C@@H]1O)N2C)OCO4", "note": "[TRABECTEDIN]", "values": [{"measurement": "Hepatotoxicity", "setting": "Hepatotoxicity [1]", "value": "drug-induced liver injury reported"}, {"measurement": "Hepatotoxicity", "setting": "Hepatotoxicity [2]", "value": "drug-induced liver injury reported"}, {"measurement": "Hepatotoxicity", "setting": "Hepatotoxicity [3]", "value": "no drug-induced liver injury reported"}]}
{"smiles": "COc1cccc(C2(O)CCCCC2CN(C)C)c1", "note": "(stereo unspecified) [TRAMADOL]", "values": [{"measurement": "Hepatotoxicity", "setting": "Hepatotoxicity [1]", "value": "drug-induced liver injury reported"}, {"measurement": "Hepatotoxicity", "setting": "Hepatotoxicity [2]", "value": "drug-induced liver injury reported"}, {"measurement": "Hepatotoxicity", "setting": "Hepatotoxicity [3]", "value": "no drug-induced liver injury reported"}]}
